Data set [1] has as its system co-cultures of neuronal cells and U87 glioma cells. Description: Co-culture of primary neurons and U87 glioma cells. It is filed as cell-based, mouse / human. The following applies: 1 µM. As to the method:
The selectivity of illudins 1 and 2 for U87 glioblastoma cells versus normal neuronal cells was evaluated by applying them to co-cultures of these cells serving as a surrogate brain tumor model. To this end, isolated murine primary neurons were grown on IBIDI dishes and after […] and the establishment of neuronal aggregates, the glioma U87 cells (~ 25,000 cells) were added to the neuronal culture. After 12 h, 1 and 2 were applied in 1 µM concentrations and the response of the different cells was monitored over a period between 15 and 48 h post incubation (Figure 8). In the control samples, the number of proliferating U87 cells increased with time and overgrew the diminishing number of differentiating neurons.
NE-4C cells derived from the anterior brain vesicles of p53-deficient 9-day-old mouse embryos were maintained in Minimum Essential Medium (MEM; Sigma Aldrich, Taufkirchen, Germany) supplemented with 5% fetal calf serum (FCS; Invitrogen-Gibco, Carlsbad, CA, USA), 4 mM glutamine (Sigma-Aldrich, Taufkirchen, Germany) and 40 ug/mL gentamycin (Chinoin, Budapest, Hungary). For maintenance, subconfluent cultures were regularly split by trypsinization (0.05 w/v% trypsin in PBS) into poly-L-lysine-coated Petri dishes. Primary astrocytes were isolated from whole brains of neonatal (P0-P3) mice, as described earlier. In brief, meninges were removed, and the tissue pieces were subjected to enzymatic dissociation, using 0.05% w/v trypsin and 0.05% w/v DNase for 10 min at room temperature. The cells were plated onto poly-L-lysine coated plastic surfaces and grown in MEM supplemented with 10% fetal calf serum, 4 mM glutamine and 40 ug/mL gentamycin. Primary neuronal cultures were prepared from embryonic (E15–E16) mouse (CD1) forebrains, as described earlier. In brief, cell suspensions were prepared by mechanical dissociation over a nylon mesh with a pore diameter of 40–42 μm. The cells were seeded at 10^5 cells/cm^2 density onto PLL-coated surfaces. The cultures were maintained in MEM supplemented with 5% FCS, 4 mM glutamine, 40 µg/mL gentamicin and 2.5 μg/mL amphotericin B (Sigma). In co-culture experiments, U87 glioma cells were seeded onto established neuronal cultures at DIV3 in a 25,000 cell/cm^2 density.
Figure 8 Co-culture of neuronal cells and U87 glioma cells in the absence or presence of 1 µM of 1 or 2. The neuronal aggregates are marked by arrowheads. Scale bar: 100 µm.

The subject of data set [2] is HT-29 colon carcinoma cells. Put plainly: MTT cell viability assay, HT-29 colon carcinoma. It is filed as cell-based. The following applies: Homo sapiens, read-out: Inhibitory concentration IC50. As to the method:
(§1) 518A2 (Department of Radiotherapy, Medical University of Vienna, Vienna, Austria) melanoma, KB-V1^Vbl (ACC-149) cervix carcinoma, MCF-7^Topo (ACC-115) breast carcinoma, HT29 (ACC-299) colon carcinoma were cultivated in Dulbecco’s Modified Eagle Medium (DMEM) supplemented with 10% fetal bovine serum and 1% antibiotic-antimycotic at 37 °C, 5% CO2, and 95% humidity. To keep MCF-7^Topo and KB-V1^Vbl cells resistant, the maximum-tolerated doses of topotecan or vinblastine were added to the cell culture medium 24 h after every passage. The human HL60 leukemia cells were obtained from the German National Resource Center for Biological Material (DSMZ), Braunschweig. Neuroectodermal stem cells NE-4C (ATCC No. CRL-2925), primary mouse astrocytes, rat glioma C6 (ATCC No. CCL-107) and human glioma U87 (ATCC No. HTB-14) were used.
(§2) Non-GBM cells (5 × 10^4 cells/mL, 100 µL/well) were grown in 96-well plates for 24 h. […] After the addition of 12.5 µL of a 0.5% MTT solution in PBS, the cells were incubated for 3 h at 37 °C so that the water-soluble MTT could be converted to formazan crystals. Then, the plates were centrifuged (300× g, 5 min, 4 °C), the medium withdrawn, and the formazan dissolved in 25 µL of DMSO containing 10% sodium dodecylsulfate (SDS) and 0.6% acetic acid for at least 2 h at 37 °C. In the case of the HL60 cells, after 2 h, the precipitate of formazan crystals was redissolved in a 10% solution of SDS in DMSO containing 0.6% acetic acid.

Data set [3] deals with NCH644^GFP+ glioma stem-like cells. Put plainly: Ex vivo tumor growth assay on adult organotypic brain slice cultures. Type of data set: cell-based. From the text: For further investigation of drug efficacy and selectivity, an ex vivo tumor growth assay employing organotypic brain slice cultures of adult murine brains were used. For this purpose, GFP-expressing NCH644 (NCH644^GFP+) glioma stem-like cells were transplanted onto these slices, and after 1 day, the treatment was started and renewed three times per week, similar to our previous studies. These cultures are suitable ex vivo models, which simulate original brain architecture and the presence of vessels, including angiogenesis and microvascular proliferation as well as specific homing of GBM cells toward those vessels, while requiring much fewer laboratory animals when compared with common in vivo animal drug tests.
Adult organotypic brain slice culture was carried out as described previously. Briefly, the brains from adult C57BL/6 J (Envigo, Horst, The Netherlands) were dissected, and dura mater was removed after the mice were euthanized. Subsequently, mouse brains were placed in warm (35–40 °C) 2% low-melting agarose (Carl Roth, Karlsruhe, Germany) and cut on a Vibratome VT1000 (Leica, Wetzlar, Germany) in 150 µm thick sections. These sections were placed on Milli-cell culture inserts (Merck KGaA, Darmstadt, Germany) and cultured in 6-well plates using FCS-free medium consisting of DMEM/F12 supplied with 1× B27 and 1× N2 supplement and 100 U/mL penicillin and 100 µg/mL streptomycin (all from Gibco, Darmstadt, Germany). One day later, multiple spheres were placed on the mouse brain slices. Adequate spheres were prepared by seeding 275.000 NCH644^GFP+ cells in a total volume of 5 mL in a T25 flask. One day after sphere transplantation, pictures were taken (day 0), and the treatment was started, which was refreshed 3 times per week. Tumor growth was evaluated using FIJI, after which pictures were taken regularly with a Nikon SMZ25 stereomicroscope equipped with a P2-SHR Plan Apo 2 × objective operated by NIS elements software. As the tumor size was normalized to the size on day 0, growth curves were created.

The subject of data set [4] is KBv1^+Vbl cervix carcinoma cells. Put plainly: MTT cell viability assay, KBv1+Vbl cervix carcinoma. It is filed as cell-based. The following applies: Homo sapiens, KB-V1/Vbl, read-out: Inhibitory concentration IC50. As to the method:
as §1, §2

[5] abbreviates: 5 µM, treatment renewed three times per week.

Like-named read-outs stand apart in the source and are kept apart here.

In the case of `CC1=C2C(=CC(C)(C)[C@@H]2O)C(=O)[C@](C)(O)C12CC2` [Compound 1, illudin M], the results for the “response of neurons and U87 cells in co-culture” value in data set [1] (15 h after treatment) and in data set [1] (48 h after treatment) were “considerable cellular fragmentation” and “merely cell debris”, respectively. Moreover, the IC50 stood at 1500 ± 600 nM in data set [2] (HT-29, 24 h exposure); 60 ± 10 nM in data set [2] (HT-29, 48 h exposure); 3 ± 1 nM in data set [4] (24 h exposure); 2 nM in data set [4] (48 h exposure). The “antitumor activity (tumor growth normalized to day 0)” value in data set [3] (setting [5]) is listed as “showed antitumor activity”.

For the compound `CC1=C(/C=C/C(C)=C/C=C/C(C)=C/C(=O)O[C@@H]2C3=C(C)C4(CC4)[C@@](C)(O)C(=O)C3=CC2(C)C)C(C)(C)CCC1` [Compound 2, illudin M retinoate], the “response of neurons and U87 cells in co-culture” value in data set [1] (15 h after treatment) was “healthy and compact neuronal aggregates”; in data set [1] (48 h after treatment), “many neurons were still present”. The IC50 in data set [2] (HT-29, 24 h exposure) stood at 38000 ± 4000 nM; in data set [2] (HT-29, 48 h exposure), 4000 ± 1300 nM; in data set [4] (24 h exposure) it was 1600 ± 400 nM; in data set [4] (48 h exposure) it was 1200 ± 100 nM. The “antitumor activity (tumor growth normalized to day 0)” value in data set [3] (setting [5]) is reported as “showed antitumor activity”; in data set [3] (0.1 and 0.5 µM), “significantly reduced”. In addition, the “toxicity in the tumor-free regions of the brain slices” value in data set [3] (organotypic brain slices) was “no signs of toxicity”.

Source of the values: PMC9408991, “Antitumor Effects of a New Retinoate of the Fungal Cytotoxin Illudin M in Brain Tumor Models” (International Journal of Molecular Sciences, 2022).
